Experimental data as given in patent publication US20260125417A1, “GLUCOCORTICOID RECEPTOR AGONISTS” (ELI LILLY AND COMPANY, priority 2022, published 2026).

Target: T1, GR-LBD (Homo sapiens, UniProt P04150)
T1 construct: purchased Life Technologies A15899
T1 sequence (P04150 524-758 limits assumed): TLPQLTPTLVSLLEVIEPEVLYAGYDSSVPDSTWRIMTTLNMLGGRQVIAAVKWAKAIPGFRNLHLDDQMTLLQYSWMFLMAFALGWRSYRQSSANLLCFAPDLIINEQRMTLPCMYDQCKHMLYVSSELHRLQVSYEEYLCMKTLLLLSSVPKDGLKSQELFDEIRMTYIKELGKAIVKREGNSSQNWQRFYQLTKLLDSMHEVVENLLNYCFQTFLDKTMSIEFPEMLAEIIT
Assay: hGR CoActivator Recruitment Assay (LanthaScreen TR-Fret GR Coactivator Assay)
Format: biochemical
Conditions: Fluorescein-SRC1-4 recruitment to GR-LBD, 10-point dilution, top concentration 200 nM, positive control 4 μM dexamethasone
Experimental: Example 4. hGR CoActivator Recruitment Assay The activity of glucocorticoid compounds was measured using the LanthaScreen TR-Fret GR Coactivator Assay from Life Technologies (A15899). The compounds were acoustically transferred to an assay plate in a 3-fold 10-point serial dilution with atop concentration of 200 nM. Ten microliters of a 2× solution of GR-LBD was added to the compound plate and incubated for 10 min. Then ten microliters of a 2× solution of Fluoresein-SRC1-4 and Tb labelled anti-GST antibody were added to the plate. The plate was incubated in the dark for two hours and then read on an Envision plate reader, with excitation at 340 nm and emission at 520 nm (Fluorescein) and 490 nm (Terbium). The emission ratio of 520/490 was analyzed in Genedata. To obtain percent activity, the data was compared to a negative control of DMSO and positive control of 4 μM dexamethasone.

Row | Structure (SMILES) | EC50 [nM]
1 | COc1ccc(CCc2ccc(N)cc2)c(F)c1[C@H]1O[C@@H]2C[C@H]3[C@@H]4CCC5=CC(=O)C=C[C@]5(C)[C@H]4[C@@H](O)C[C@]3(C)[C@]2(C(=O)CO)O1 [compound 3, (6aR,6bS,7S,8aS,8bS,10S,11aR,12aS,12bS)-10-(3-(4-aminophenethyl)-2-fluoro-6-methoxyphenyl)-7-hydroxy-8b-(2-hydroxyacetyl)-6a,8a-dimethyl-1,2,6a,6b,7,8,8a,8b,11a,12,12a,12b-dodecahydro-4H-naphtho[2′,1′:4,5]indeno[1,2-d][1,3]dioxol-4-one] | 1.65
2 | CCc1ccc(OCc2cccc(N)c2)c(F)c1[C@H]1O[C@@H]2C[C@H]3[C@@H]4CCC5=CC(=O)C=C[C@]5(C)[C@H]4[C@@H](O)C[C@]3(C)[C@]2(C(=O)CO)O1 [compound 2, (6aR,6bS,7S,8aS,8bS,10S,11aR,12aS,12bS)-10-(3-((3-aminobenzyl)oxy)-6-ethyl-2-fluorophenyl)-7-hydroxy-8b-(2-hydroxyacetyl)-6a,8a-dimethyl-1,2,6a,6b,7,8,8a,8b,11a,12,12a,12b-dodecahydro-4H-naphtho[2′,1′:4,5]indeno[1,2-d][1,3]dioxol-4-one] | 1.52
3 | COc1ccc(OCCc2cccc(N)c2)c(F)c1[C@H]1O[C@@H]2C[C@H]3[C@@H]4CCC5=CC(=O)C=C[C@]5(C)[C@H]4[C@@H](O)C[C@]3(C)[C@]2(C(=O)CO)O1 [compound 5, (6aR,6bS,7S,8aS,8bS,10S,11aR,12aS,12bS)-10-(3-(3-aminophenethoxy)-2-fluoro-6-methoxyphenyl)-7-hydroxy-8b-(2-hydroxyacetyl)-6a,8a-dimethyl-1,2,6a,6b,7,8,8a,8b,11a,12,12a,12b-dodecahydro-4H-naphtho[2′,1′:4,5]indeno[1,2-d][1,3]dioxol-4-one] | 2.25
4 | COc1ccc(OCCc2ccc(N)cc2)c(F)c1[C@H]1O[C@@H]2C[C@H]3[C@@H]4CCC5=CC(=O)C=C[C@]5(C)[C@H]4[C@@H](O)C[C@]3(C)[C@]2(C(=O)CO)O1 [compound 4, (6aR,6bS,7S,8aS,8bS,10S,11aR,12aS,12bS)-10-(3-(4-aminophenethoxy)-2-fluoro-6-methoxyphenyl)-7-hydroxy-8b-(2-hydroxyacetyl)-6a,8a-dimethyl-1,2,6a,6b,7,8,8a,8b,11a,12,12a,12b-dodecahydro-4H-naphtho[2′,1′:4,5]indeno[1,2-d][1,3]dioxol-4-one] | 1.48
5 | [2H]C([2H])([2H])Oc1ccc(OCc2cccc(N)c2)c(F)c1[C@H]1O[C@@H]2C[C@H]3[C@@H]4CCC5=CC(=O)C=C[C@]5(C)[C@H]4[C@@H](O)C[C@]3(C)[C@]2(C(=O)CO)O1 [Compound No. 1] | 1.93
